# Legend:
# CPTP (GLTPD1) [1] = target: T1, CPTP (GLTPD1) (Homo sapiens, UniProt Q5TA50); test: FRET lipid transfer between POPC vesicles; format: biochemical; conditions: 37 °C; labelled compound
# T1 sequence (Q5TA50 1-214): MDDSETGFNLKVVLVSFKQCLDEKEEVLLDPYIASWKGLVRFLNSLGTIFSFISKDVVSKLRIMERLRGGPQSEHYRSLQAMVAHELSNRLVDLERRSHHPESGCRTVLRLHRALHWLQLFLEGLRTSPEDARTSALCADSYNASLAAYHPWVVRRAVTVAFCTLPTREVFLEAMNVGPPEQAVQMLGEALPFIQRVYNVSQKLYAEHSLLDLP
# CPTP (GLTPD1) [2] = target: T1, CPTP (GLTPD1); test: X-ray crystal structure; format: binding; conditions: sphingosine-in mode site as C1P
transfer rate (CPTP (GLTPD1) [1]),X-ray crystal structure (CPTP (GLTPD1) [2]),SMILES
~ 4 C1P molecules/min/protein,,"CCCCCCCCCCCCC/C=C/[C@@H](O)[C@H](COP(=O)(O)O)NC(=O)CCCCCCCCC/C=C/c1c2ccccc2cc2ccccc12 [AV-C1P, anthrylvinyl-C1P]"
,PA occupies the same binding site,CCCCCCCCCCCC(=O)OC[C@H](COP(=O)(O)O)OC(=O)CCCCCCCCCCC [di12:0-PA]

# From PMC3951269 (Nature, 2013)
